Experimental data taken from US20090252834A1, “Compositions comprising glucose anti-metabolites” (priority 2004, published 2009).
Each block holds one compound with its values, some of them ahead of it.

How the values were obtained:
[1] = test system: mice; test: Mice fed a diet containing mannoheptulose; format: in vivo
Description: (§1) Both of these endpoints are closely related to altered glucose and/or carbohydrate metabolism, similar to that elicited by dietary caloric restriction.

[2] = test system: fruit flies and/or nematodes; test: Lifespan of fruit flies and/or nematodes fed mannoheptulose; format: in vivo
Description: as §1

[3] = Pharmacokinetics of mannoheptulose, once daily in a nutritionally-balanced composition, adult Labrador Retrievers; format: in vivo, Labrador Retriever dogs
Method: The pharmacokinetics of mannoheptulose can be determined in six adult, male Labrador Retriever dogs fed a nutritionally-balanced composition providing mannoheptulose at levels of 0, 1 or 2 mg/kg of body weight of the dog. Mannoheptulose is provided as an enriched source of avocado extract in the 1 and 2 mg/kg diets. The mean age of the dogs is 4.2 years and the age ranges from 3.3 to 6.1 years. The average body weight of all dogs is 33 kg and the body weight ranges from 28 to 36 kg. Dogs are adapted for 14 days to a nutritionally-balanced control composition (Eukanuba Senior Maintenance Formula) containing no mannoheptulose, avocado extract or avocado meal (0 mg/kg mannoheptulose). The two compositions containing mannoheptulose are the nutritionally-balanced control composition formulated with avocado extract to provide a mannoheptulose dose of 1 or 2 mg/kg of body weight when fed to a dog. The amount of composition offered to the dogs is based on feeding guidelines for the control composition and the target weight range and body condition of the dogs. After 14 days, dogs are fed one of the three compositions for 9 days. On day 9, the dogs are fed their daily allotment of composition as a single meal at 0730. Dog 1 and dog 2 are fed the control composition containing 0 mg/kg mannoheptulose, dog 3 and dog 4 are fed the composition containing 1 mg/kg mannoheptulose, and dog 5 and dog 6 are fed the composition containing 2 mg/kg mannoheptulose. Pharmacokinetics of mannoheptulose following once daily administration of mannoheptulose in a nutritionally-balanced composition is determined by collecting serial blood samples (3 mL) from each dog on day 9 using a Vacutainer blood collection system and jugular venipuncture. Blood samples are collected at −30, 0, 30, 60, 90, 120, 240, 360, 480, 600, 720 and 1,440 minutes relative to each dog receiving their entire daily allotment of composition as a single meal. Plasma mannoheptulose concentrations are measured using high-performance liquid chromatography tandem mass spectrometry as described herein below.
A one-compartment model is used to calculate mannoheptulose pharmacokinetics based on plasma mannoheptulose levels following once daily oral administration of mannoheptulose in a nutritionally-balanced composition (PV(t)). The model is: PV(t)=dose/(a·BW)e^−kt where: a mannoheptulose pool size (dose/(enrichment at to)), BW=body weight, k=rate constant of elimination (In Et−1n E0)/−t, and t=time. Area under each plasma mannoheptulose curve is determined using a one-way, repeated measures analysis of variance (GraphPad Prism version 4.00 for Windows).
High performance liquid chromatography tandem mass spectrometry (HPLC/MS/MS) is utilized to determine the amount of mannoheptulose present in the plasma of adult dogs. D-mannoheptulose and its chemical analog internal standard (D7-glucose) are isolated from dog plasma by a protein precipitation procedure (described herein below) using a 96-well format. […] Detection and quantitation is by mass spectrometry (MS) operating under multiple reaction monitoring MS/MS conditions. Concentrations of D-mannoheptulose in dog plasma can be quantitated from approximately 20 to 5000 ng/mL. […] Specimen concentrations are determined by back-calculation using a weighted (1/x^2) linear regression of a calibration curve generated from prepared D-mannoheptulose calibration standards.

[4] = Pharmacokinetics of mannoheptulose, twice daily in a nutritionally-balanced composition, older Labrador Retrievers; format: in vivo, Labrador Retriever dogs; conditions: 2 mg/kg; for half-life: female, Labrador Retriever, dog, plasma, oral
Method: The pharmacokinetics of mannoheptulose can be determined in ten adult, female Labrador Retriever dogs fed a nutritionally-balanced composition providing mannoheptulose at levels of 0 or 2 mg/kg of body weight of the dog. Mannoheptulose is provided as avocado extract in the 2 mg/kg diet. The mean age of the dogs is 7.1 years and the age ranges from 5.3 to 8.4 years. Dogs are age-matched across the two composition groups. The average body weight of all dogs is 29 kg and ranges from 25 to 35 kg. The 0 mg/kg composition is fed as a nutritionally-balanced control composition (Eukanuba Senior Maintenance Formula) and it contains no mannoheptulose, avocado extract or avocado meal. The 2 mg/kg composition is the nutritionally-balanced control composition formulated to contain avocado extract to provide mannoheptulose at a dose of 2 mg/kg of body weight of the dog. The amount of composition offered to the dogs is based on feeding guidelines for the control composition and the target weight range and body condition of the dogs. Dogs are fed one-half their daily allotment of composition at 0730 and the remaining half at 1330. Dogs 1, 2, 3, 4 and 5 are fed the composition containing 2 mg/kg mannoheptulose and dogs 6, 7, 8, 9 and 10 are fed the composition containing 0 mg/kg mannoheptulose. Pharmacokinetics of mannoheptulose following twice daily administration of mannoheptulose in a nutritionally-balanced composition is determined by collecting serial blood samples (3 mL) from each dog using a Vacutainer blood collection system and jugular venipuncture. […] Plasma mannoheptulose concentrations are measured using high-performance liquid chromatography tandem mass spectrometry as described herein below.
A one-compartment model is used to calculate mannoheptulose pharmacokinetics based on plasma mannoheptulose levels following twice daily oral administration of mannoheptulose in a nutritionally-balanced composition (PV(t)). The model is: PV(t)=dose/(a·BW)e^−kt where: a=mannoheptulose pool size (dose/(enrichment at to)), BW=body weight, k=rate constant of elimination (In Et−1n E0)/−t, and t=time.
High performance liquid chromatography tandem mass spectrometry (HPLC/MS/MS) is utilized to determine the amount of mannoheptulose present in the plasma of adult dogs. D-mannoheptulose and its chemical analog internal standard (D7-glucose) are isolated from dog plasma by a protein precipitation procedure (described herein below) using a 96-well format. The analyte and internal standard are subjected to reverse-phase high performance liquid chromatographic (HPLC) analysis on a polymeric amino column (2.1×150 mm, 5-μm particles). Detection and quantitation is by mass spectrometry (MS) operating under multiple reaction monitoring MS/MS conditions. Concentrations of D-mannoheptulose in dog plasma can be quantitated from approximately 20 to 5000 ng/mL. The assay requires a 0.1 mL aliquot of dog plasma harvested from a Na2EDTA anti-coagulant blood collection tube. Specimen concentrations are determined by back-calculation using a weighted (1/x^2) linear regression of a calibration curve generated from prepared D-mannoheptulose calibration standards.

[5] = test system: older Labrador Retrievers; test: ADL-Jump (jumping over hurdles) of older dogs; format: in vivo, Labrador Retriever dogs; conditions: 2 mg/kg, across all four quarters
Method: (§2) A total of 39 older Labrador Retrievers are fed a nutritionally-balanced composition providing mannoheptulose at levels of 0 or 2 mg/kg of body weight of the dog. Average age of the dogs (12 neutered males, 27 spayed females) at the start of a 4-year study is 6.7 years with a range of 5.1 to 8.2 years of age for the youngest and oldest dog within the cohort, respectively. The 0 mg/kg composition is fed as a nutritionally-balanced control composition (Eukanuba Senior Maintenance Formula) and it contains no mannoheptulose, avocado extract or avocado meal. The 2 mg/kg composition is the nutritionally-balanced control composition formulated with avocado extract to provide mannoheptulose at a dose of 2 mg/kg body weight of the dog. The nutritionally-balanced composition containing 0 mg/kg mannoheptulose is referred to as Diet 1 within this Example. The nutritionally-balanced composition containing 2 mg/kg mannoheptulose is referred to as Diet 2 within this Example. […]
(§3) Shoulder height of each individual dog is measured using a tape measure and recorded. […]
(§4) The ADL-Table activity requires the dog to jump on to and down from the platform of four tables of graduated heights, starting with the lowest table height first. […] For both activities, dogs are scored for the number of attempts at each graduated height and the successful completion of each height. […]

[6] = test system: older Labrador Retrievers; test: ADL-Table (jumping onto table platforms) of older dogs; format: in vivo, Labrador Retriever dogs; conditions: 2 mg/kg, across all four quarters
Method: as §2, §3, §4

[7] = cited from earlier work
[8] = rats, cited from earlier work
[9] = test system: rodents; conditions: long-term; cited from earlier work
[10] = high doses; cited from earlier work
[11] = test system: isolated rat hepatocytes; conditions: cited from earlier work
[12] = injected into a rat; cited from earlier work
[13] = test system: rats; conditions: by injection, in rats; cited from earlier work
[14] = in contrast with 2-deoxy-D-glucose; cited from earlier work
[15] = test system: rats; conditions: cited from earlier work
[16] = twice daily, after the afternoon meal
[17] = twice daily, after the morning meal

response of plasma mannoheptulose levels to dietary mannoheptulose levels ([3]; 0, 1, 2 mg/kg): dose-dependent manner
time for plasma mannoheptulose to return to non-detectable levels ([3]; after consumption of the single daily meal): ≤ 24 h
half-life ([3]; male, Labrador Retriever, dog, plasma, once daily oral, 2 mg/kg, mathematical modeling): 6.25 h
turnover time ([3]; once daily oral, 2 mg/kg, mathematical modeling): 9.0 h
order of plasma kinetics ([3]; once daily oral, 1 or 2 mg/kg): first order kinetics
half-life [4, 16]: 5.63 h
half-life [4, 17]: 5.42 h
order of plasma kinetics ([4]; twice daily oral): first order kinetics
return of plasma mannoheptulose to undetectable levels ([4]; twice daily): by the following morning
turnover time [4, 16]: 3.90 h
turnover time [4, 17]: 7.8 h
time to second peak in plasma mannoheptulose after afternoon meal ([4]; twice daily, afternoon meal): 4 h
time to peak plasma mannoheptulose levels after initial feeding ([4]; twice daily, morning meal): 4 h
SMILES: O=C(CO)[C@@H](O)[C@@H](O)[C@H](O)[C@H](O)CO [mannoheptulose]
body weight [1]: slightly reduced body weight
plasma insulin levels [1]: reduced plasma insulin levels
lifespan extension [2]: ~50%
percentage of older dogs successfully jumping heights vs composition devoid of mannoheptulose [5]: a greater percentage of older dogs are able to successfully jump all heights
percentage of older dogs successfully jumping onto platforms vs composition devoid of mannoheptulose [6]: a greater percentage of older dogs can successfully jump onto platforms that are 70, 80, 90 and 100% of their shoulder height
mannoheptulose ingested appearing in urine ([7]; after oral administration): About 5%
safety of oral administration ([7]; humans, doses of 10 grams, orally): safely administered
injected mannoheptulose remained in the body ([8]; a day after the injection): 5%
injected mannoheptulose excreted unchanged ([8]; injection): 66%
injected mannoheptulose metabolized ([8]; injection): 29%

SMILES: O=CC[C@@H](O)[C@H](O)[C@H](O)CO [2-deoxy-D-glucose]
metabolic hallmarks of caloric restriction (reduced body temperature, weight loss, lower fasting insulin levels) [9]: can mimic some of the major metabolic hallmarks of caloric restriction
side effects and toxicity [10]: significant untoward side effects and toxicity have been observed

SMILES: OC[C@H]1O[C@H](CO)[C@@H](O)[C@@H]1O [2,5-Anhydro-D-mannitol, 2,5-anhydro-D-mannitol]
glucose formation and utilization [11]: interfere in glucose formation and utilization

SMILES: O=C[C@H](O)[C@@H](O)[C@H](O)[C@H](S)CO [5-Thioglucose, 5-thio-D-glucose]
5-thioglucose excreted unchanged in urine [12]: 97%
LD50 [13]: 14000 mg/kg

SMILES: CO[C@@H]([C@H](O)[C@H](O)CO)[C@@H](O)C=O [3-O-methylglucose]
metabolism of the glucose analog [14]: not metabolized
responses to administration compared with 2-deoxyglucose [15]: about seven times weaker
